The values below come from US6110494A, “Cisapride mini-tablet formulations” (Elan Corporation, plc, priority 1997, dated 2000).

For data set [1] the following is noted: extended release, viscous hydrophilic polymers; cited from earlier work.
Data set [2] in a line: Solubility of cisapride and its salt.
For data set [3] the following is noted: cited from earlier work.

Structures are written as SMILES.

As for `COc1cc(N)c(Cl)cc1C(=O)NC1CCN(CCCOc2ccc(F)cc2)CC1OC.O=C(O)C(O)C(O)C(=O)O` (single isomer, unassigned; (+)) [(+)-cisapride-(L) tartrate], the dissolution rates result in data set [1] is recorded as “equal dissolution rates”.

With `COc1cc(N)c(Cl)cc1C(=O)NC1CCN(CCCOc2ccc(F)cc2)CC1OC` (single isomer, unassigned; (-)) [(-)-cisapride-(L)tartrate], the dissolution rates entry in data set [1] is on record as “equal dissolution rates”.

As for `COc1cc(N)c(Cl)cc1C(=O)NC1CCN(CCCOc2ccc(F)cc2)CC1OC` (stereo not drawn) [Cisapride], the “solubilisation at pH 6.8” value in data set [2] was “SLS (sodium lauryl sulphate) was required to solubilise”. Further, in data set [3] (food), the “effect of food on absorption” value is given as “enhancing effect on the absorption”. For the same compound, in data set [3] (in vivo), the half life result is reported as “relatively short half life”. Further, in data set [3] (more distal regions), the “absorption in distal regions of the gastrointestinal tract” value was “significant decrease in absorption”.
